For one data set, the system named is Target RNA. Kind of data set: Tm values of L-thymidine modified oligonucleotides against RNA. It counts as binding.
Data set [1] can be described thus: In vivo nuclease stability of L/D-oligonucleotide chimera, full-length oligonucleotide in organs by CGE. More on the design: species or system BalbC mouse. The conditions noted are these: IV bolus, after 24 h. As to the method:
Here we report the in vivo nuclease stability of L/D-oligonucleotide chimera in mouse. We synthesized the phosphoramidite and CPG derived from L-thymidine, which was synthesized from a novel route [Jung, E. M.; Xu, Y. Tetrahedron Lett. 1997, 24, 4199-4202]. A 20 mer phosphorothioate oligonucleotide ISIS-120745 (antisense to mouse ICAM-1) was capped with L-2′-deoxy thymidine at 3′ and 5′-positions. The oligonucleotide was then administered IV bolus into BalbC mouse. After 24 h. mouse was sacrificed and the oligonucleotide was isolated from different organs. Percentage of full-length oligonucleotide present in different organs were analyzed by CGE.

Data on 2 substances can be found in patent US20030175906A1, “Nuclease resistant chimeric oligonucleotides” (priority 2001, published 2003).

In general, ΔTm refers to the shift of the melting midpoint relative to a reference.

Take “ISIS 120745: 5′ T*GC ATC CCC CAG GCC ACC AT* 3′, T* = L-Thymidine, all P=S; antisense to mouse ICAM-1 (antisense TGCATCCCCCAGGCCACCAT; chemistry not fully specified)”: the ΔTm in the data set on Target RNA was −1.76 °C. In data set [1], the “intact full-length oligonucleotide isolated from all the major organs” value is > 90%.
On to “ISIS 121785: 5′ T*C^oC^oGCGCTGTGATGCA^oT^oT* 3′ (SEQ ID NO:2), L-thymidine caps, 2′-O-MOE, all P=S (DNA NNNCGCTGTGATGCNNN; L-thymidine caps, 2'-O-MOE, phosphorothioate, chemistry not fully specified)”, for which, in the data set with Target RNA, the “Tm, Target RNA” value amounted to 63.3 °C and the ΔTm worked out at 2.7 °C.
